The results in this text go back to patent US8410302B2, “Methoxyimino compounds and fungicide composition comprising same” (Kyung Nong Corporation, priority 2007, dated 2013).

One experiment relates to Phytophthora infestans. Nature of the experiment: whole plant or invertebrate. It is filed as in vivo. Particulars: Phytophthora infestans, in Solanum lycopersicum, read-out: TLB control value (C.V.).
Another experiment concerns Rhizoctonia solani AG-1. Nature of the experiment: Fungicidal activity against rice sheath blight (RSB) disease, control value. Particulars: Rhizoctonia solani, AG1, in Oryza sativa, read-out: RSB control value (C.V.).
The next experiment relates to Botrytis cinerae. Nature of the experiment: Fungicidal activity against cucumber gray mold rot (CGM) disease, control value. Type of experiment: in vivo. The conditions noted are these: Botrytis; 100 ppm; read-out: CGM control value (C.V.).
The test system of experiment [1] is Pyricularia oryzae Carvara KA301. Put plainly: whole plant or invertebrate. Type of experiment: in vivo. Particulars: Pyricularia oryzae, read-out: RCB control value (C.V.).
Another experiment deals with Puccinia recondita. Nature of the experiment: Fungicidal activity against wheat leaf rust (WLR) disease, control value. It is filed as in vivo. Particulars: Puccinia recondita, read-out: WLR control value (C.V.).
A further experiment deals with Erysiphae graminis. Put plainly: Fungicidal activity against barley powdery mildew (BPM) disease, control value. Type of experiment: in vivo. Particulars: 168 h, read-out: BPM control value (C.V.).

Take `CNC(=O)/C(=N/OC)c1ccccc1COc1ccc(C=C(Br)Br)cc1Br` [Example 78, (E)-2-(2-((2-bromo-4-(2,2-dibromovinyl)phenoxy)methyl)phenyl)-2-methoxyimino-N-methylacetamide]: the pest or weed control at 2 ppm in the experiment with Phytophthora infestans worked out at 70%; in the experiment on Rhizoctonia solani AG-1 it was 65%; in experiment [1], 40%; in the experiment with Puccinia recondita, 95%; with Erysiphae graminis, 90%. Moreover, the pest or weed control at 10 ppm was found to be 90% in the experiment with Phytophthora infestans; 98% in the experiment with Rhizoctonia solani AG-1; 90% in experiment [1]; 98% with Puccinia recondita; 100% in the experiment on Erysiphae graminis. The pest or weed control at 50 ppm with Phytophthora infestans stood at 98%; in the experiment on Rhizoctonia solani AG-1 it was 100%; in experiment [1] it was 98%; in the experiment on Puccinia recondita, 100%; with Erysiphae graminis it was 100%. For the same molecule, the pest or weed control at 100 ppm with Phytophthora infestans came to 100%; in the experiment with Rhizoctonia solani AG-1, 100%; with Botrytis cinerae it was 40%; in experiment [1], 100%; in the experiment with Puccinia recondita, 100%; in the experiment on Erysiphae graminis, 100%.
For `CO/N=C(/C(=O)OC)c1ccccc1COc1ccc(F)cc1C=C(Br)Br` [Example 79, methyl-(E)-2-(2-((2-(2,2-dibromovinyl)-4-fluorophenoxy)methyl)phenyl)-2-methoxyiminoacetate], the pest or weed control at 2 ppm is 70% with Phytophthora infestans; 85% in the experiment on Rhizoctonia solani AG-1; 80% in experiment [1]; 95% in the experiment with Puccinia recondita; 90% with Erysiphae graminis. Besides, the pest or weed control at 10 ppm stood at 90% in the experiment with Phytophthora infestans; 98% with Rhizoctonia solani AG-1; 98% in experiment [1]; 100% in the experiment on Puccinia recondita; 100% in the experiment with Erysiphae graminis. Also, the pest or weed control at 50 ppm with Phytophthora infestans amounted to 98%; in the experiment on Rhizoctonia solani AG-1, 100%; in experiment [1] it was 100%; in the experiment on Puccinia recondita, 100%; in the experiment with Erysiphae graminis, 100%. In addition, the pest or weed control at 100 ppm was determined as 100% in the experiment with Phytophthora infestans; 100% in the experiment on Rhizoctonia solani AG-1; 40% in the experiment with Botrytis cinerae; 100% in experiment [1]; 100% in the experiment with Puccinia recondita; 100% with Erysiphae graminis.
As to `CNC(=O)/C(=N/OC)c1ccccc1COc1ccc(F)cc1C=C(Br)Br` [Example 80, (E)-2-(2-((2-(2,2-dibromovinyl)-4-fluorophenoxy)methyl)phenyl)-2-methoxyimino-N-methylacetamide], the pest or weed control at 2 ppm in the experiment with Phytophthora infestans was 70%; in the experiment on Rhizoctonia solani AG-1, 65%; in experiment [1], 35%; in the experiment with Puccinia recondita, 95%; in the experiment with Erysiphae graminis it was 90%. Besides, the pest or weed control at 10 ppm in the experiment on Phytophthora infestans was found to be 90%; in the experiment with Rhizoctonia solani AG-1, 98%; in experiment [1] it was 90%; in the experiment on Puccinia recondita, 100%; in the experiment with Erysiphae graminis, 100%. Moreover, the pest or weed control at 50 ppm was 98% in the experiment on Phytophthora infestans; 100% with Rhizoctonia solani AG-1; 100% in experiment [1]; 100% in the experiment on Puccinia recondita; 100% with Erysiphae graminis. Besides, the pest or weed control at 100 ppm is 100% in the experiment with Phytophthora infestans; 100% in the experiment on Rhizoctonia solani AG-1; 55% in the experiment on Botrytis cinerae; 100% in experiment [1]; 100% with Puccinia recondita; 100% in the experiment on Erysiphae graminis.
Turning to `CO/N=C(/C(=O)OC)c1ccccc1COc1ccc(C=C(Br)Br)c(Cl)c1` [Example 81, methyl-(E)-2-(2-((4-(2,2-dibromovinyl)-3-chlorophenoxy)methyl)phenyl)-2-methoxyiminoacetate], the pest or weed control at 2 ppm in the experiment with Phytophthora infestans came to 60%; with Rhizoctonia solani AG-1 it was 55%; in experiment [1] it was 70%; with Puccinia recondita, 95%; in the experiment with Erysiphae graminis, 98%. The pest or weed control at 10 ppm in the experiment on Phytophthora infestans turned out to be 90%; in the experiment with Rhizoctonia solani AG-1 it was 98%; in experiment [1], 90%; in the experiment on Puccinia recondita, 100%; in the experiment on Erysiphae graminis it was 100%. Also, the pest or weed control at 50 ppm came to 98% with Phytophthora infestans; 100% in the experiment with Rhizoctonia solani AG-1; 100% in experiment [1]; 100% in the experiment on Puccinia recondita; 100% with Erysiphae graminis. Further, the pest or weed control at 100 ppm was found to be 100% with Phytophthora infestans; 100% in the experiment on Rhizoctonia solani AG-1; 60% in the experiment on Botrytis cinerae; 100% in experiment [1]; 100% in the experiment with Puccinia recondita; 100% in the experiment on Erysiphae graminis.
As to `CNC(=O)/C(=N/OC)c1ccccc1COc1ccc(C=C(Br)Br)c(Cl)c1` [Example 82, (E)-2-(2-((4-(2,2-dibromovinyl)-3-chlorophenoxy)methyl)phenyl)-2-methoxyimino-N-methylacetamide], the pest or weed control at 10 ppm in the experiment on Phytophthora infestans worked out at 30%; with Rhizoctonia solani AG-1, 90%; in experiment [1], 90%; in the experiment with Puccinia recondita, 100%; in the experiment with Erysiphae graminis, 90%. Also, the pest or weed control at 50 ppm in the experiment on Phytophthora infestans is 90%; in the experiment on Rhizoctonia solani AG-1 it was 99%; in experiment [1], 100%; in the experiment on Puccinia recondita it was 100%; in the experiment with Erysiphae graminis, 95%. The pest or weed control at 100 ppm in the experiment with Phytophthora infestans stood at 90%; in the experiment on Rhizoctonia solani AG-1, 100%; in the experiment with Botrytis cinerae it was 0%; in experiment [1] it was 100%; with Puccinia recondita it was 100%; in the experiment on Erysiphae graminis, 95%. Moreover, the pest or weed control at 2 ppm in the experiment with Rhizoctonia solani AG-1 is 70%; in experiment [1], 70%; with Puccinia recondita, 98%; in the experiment on Erysiphae graminis, 5%.
